Data set [1] deals with T1, Cholinesterase (Homo sapiens, UniProt P06276). Briefly: Inhibition of recombinant human BuChE expressed in HEK293 cells preincubated for 15 mins. The class given is cell-based.
The target in data set [2] is T2, Acetylcholinesterase (Homo sapiens, UniProt P22303). Briefly: Inhibition of recombinant human AChE expressed in HEK293 cells preincubated for 15 mins. The class given is cell-based.
In data set [3] the target is T3, Amine oxidase [flavin-containing] A (Homo sapiens, UniProt P21397).
T3 sequence (P21397 whole entry): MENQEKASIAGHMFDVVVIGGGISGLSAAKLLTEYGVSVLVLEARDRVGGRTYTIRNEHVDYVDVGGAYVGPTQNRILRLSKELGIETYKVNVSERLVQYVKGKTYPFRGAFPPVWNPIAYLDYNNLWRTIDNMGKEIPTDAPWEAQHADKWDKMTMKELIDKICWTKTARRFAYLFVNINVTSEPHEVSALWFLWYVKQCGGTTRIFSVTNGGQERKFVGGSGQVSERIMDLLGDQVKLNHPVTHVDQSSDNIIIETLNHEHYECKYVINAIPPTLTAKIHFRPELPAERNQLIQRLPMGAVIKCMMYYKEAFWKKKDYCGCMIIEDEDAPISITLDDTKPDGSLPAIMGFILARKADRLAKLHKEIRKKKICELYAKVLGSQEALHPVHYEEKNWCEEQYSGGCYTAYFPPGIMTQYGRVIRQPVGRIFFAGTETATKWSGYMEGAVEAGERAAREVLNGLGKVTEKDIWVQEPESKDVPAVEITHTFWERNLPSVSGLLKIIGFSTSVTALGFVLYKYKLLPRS
Briefly: Inhibition of human MAO-A expressed in baculovirus infected BTI insect cells preincubated for 15 mins.

The target of data set [4] is T4, Amine oxidase [flavin-containing] B (Homo sapiens, UniProt P27338).
T4 sequence (P27338 whole entry): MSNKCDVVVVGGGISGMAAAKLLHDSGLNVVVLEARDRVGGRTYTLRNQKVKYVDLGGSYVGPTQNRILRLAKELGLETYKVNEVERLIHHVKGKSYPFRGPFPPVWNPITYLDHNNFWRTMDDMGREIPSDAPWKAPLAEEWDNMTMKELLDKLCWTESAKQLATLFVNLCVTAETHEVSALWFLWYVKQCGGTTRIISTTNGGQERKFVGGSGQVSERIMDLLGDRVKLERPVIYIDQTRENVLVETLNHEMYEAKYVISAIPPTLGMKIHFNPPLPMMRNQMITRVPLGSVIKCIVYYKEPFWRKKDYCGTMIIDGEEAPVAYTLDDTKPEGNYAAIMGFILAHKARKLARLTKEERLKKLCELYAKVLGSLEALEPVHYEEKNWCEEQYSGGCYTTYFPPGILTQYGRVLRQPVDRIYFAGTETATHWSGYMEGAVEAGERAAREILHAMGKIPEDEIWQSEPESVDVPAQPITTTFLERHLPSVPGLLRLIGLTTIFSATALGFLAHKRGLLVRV
As to the kind of experiment: Inhibition of human MAO-B expressed in baculovirus infected BTI insect cells preincubated for 15 mins. The class given is cell-based.

The species entered for the next data set is Homo sapiens. As to the kind of experiment: Selectivity ratio of IC50 for human MAO-A expressed in baculovirus infected BTI insect cells to IC50 for human MAO-B expressed in baculovirus infected BTI insect cells.
The subject of a further data set is HEK293. Briefly: Selectivity ratio of IC50 for recombinant human AChE expressed in HEK293 cells to IC50 for recombinant human BuChE expressed in HEK293 cells. The class given is cell-based.
The target in data set [5] is T2, Acetylcholinesterase. As to the kind of experiment: Inhibition of recombinant human AChE expressed in HEK293 cells preincubated at 100 uM for 15 mins. The class given is cell-based.
Data set [6] concerns the target T1, Cholinesterase. As to the kind of experiment: Inhibition of recombinant human BuChE expressed in HEK293 cells preincubated at 100 uM for 15 mins. The class given is cell-based.
Data set [7] deals with T4, Amine oxidase [flavin-containing] B. Briefly: Irreversible inhibition of human MAO-B expressed in baculovirus infected BTI insect cells compound incubated at 10 times IC50 for 30 mins followed by 100 fold dilution relative to control. The conditions noted are these: 0.5 h.
In data set [8] the target is T2, Acetylcholinesterase. As to the kind of experiment: Inhibition of recombinant human AChE expressed in HEK293 cells assessed as enzyme recovery compound incubated at 10 times IC50 for 30 mins followed by 100 fold dilution relative to control. On the set-up: scale not given: the % may be the effect or the level left. The class given is cell-based.
Data set [9] can be described thus: Permeability of the compound by PAMPA-BBB method in presence of PBS:ethanol at 70:30 ratio. The class given is ADME. Conditions: read-out: permeability.
Data set [10] deals with T3, Amine oxidase [flavin-containing] A. As to the kind of experiment: Reversible inhibition of human MAO-A expressed in baculovirus infected BTI insect cells.
Data set [11] shares this target. Briefly: Irreversible inhibition of human MAO-A expressed in baculovirus infected BTI insect cells compound incubated at 10 times IC50 for 30 mins followed by 100 fold dilution relative to control. Conditions: 0.5 h.
For data set [12], the target named is T1, Cholinesterase. Briefly: Inhibition of recombinant human BuChE expressed in HEK293 cells assessed as enzyme recovery compound incubated at 10 times IC50 for 30 mins followed by 100 fold dilution relative to control. The class given is cell-based. More on the design: scale not given: the % may be the effect or the level left.
Data set [13] has as its target T4, Amine oxidase [flavin-containing] B. As to the kind of experiment: Inhibition of human MAO-B expressed in baculovirus infected BTI insect cells preincubated at 100 uM for 15 mins.
The target in data set [14] is T3, Amine oxidase [flavin-containing] A. As to the kind of experiment: Inhibition of human MAO-A expressed in baculovirus infected BTI insect cells preincubated at 100 uM for 15 mins.

Active and inactive are the calls of the source. The rule behind the calls is not given here.

T1 sequence (P06276 whole entry): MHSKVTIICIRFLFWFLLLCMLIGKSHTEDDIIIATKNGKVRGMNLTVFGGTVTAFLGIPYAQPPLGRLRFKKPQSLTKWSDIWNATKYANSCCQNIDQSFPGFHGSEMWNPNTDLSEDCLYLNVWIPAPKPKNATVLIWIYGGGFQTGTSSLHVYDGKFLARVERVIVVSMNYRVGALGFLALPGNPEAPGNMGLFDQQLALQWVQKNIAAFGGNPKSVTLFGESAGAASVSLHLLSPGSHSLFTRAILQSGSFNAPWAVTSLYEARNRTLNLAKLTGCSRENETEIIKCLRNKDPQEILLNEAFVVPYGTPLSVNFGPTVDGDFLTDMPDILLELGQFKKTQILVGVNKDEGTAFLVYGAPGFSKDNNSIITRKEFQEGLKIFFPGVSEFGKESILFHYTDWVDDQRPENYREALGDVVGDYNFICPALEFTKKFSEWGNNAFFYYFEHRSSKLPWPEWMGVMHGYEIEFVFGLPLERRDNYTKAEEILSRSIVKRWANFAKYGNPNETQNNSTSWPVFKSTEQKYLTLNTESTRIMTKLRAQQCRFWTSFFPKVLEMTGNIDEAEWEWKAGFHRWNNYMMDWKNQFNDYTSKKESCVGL
T2 sequence (P22303 whole entry): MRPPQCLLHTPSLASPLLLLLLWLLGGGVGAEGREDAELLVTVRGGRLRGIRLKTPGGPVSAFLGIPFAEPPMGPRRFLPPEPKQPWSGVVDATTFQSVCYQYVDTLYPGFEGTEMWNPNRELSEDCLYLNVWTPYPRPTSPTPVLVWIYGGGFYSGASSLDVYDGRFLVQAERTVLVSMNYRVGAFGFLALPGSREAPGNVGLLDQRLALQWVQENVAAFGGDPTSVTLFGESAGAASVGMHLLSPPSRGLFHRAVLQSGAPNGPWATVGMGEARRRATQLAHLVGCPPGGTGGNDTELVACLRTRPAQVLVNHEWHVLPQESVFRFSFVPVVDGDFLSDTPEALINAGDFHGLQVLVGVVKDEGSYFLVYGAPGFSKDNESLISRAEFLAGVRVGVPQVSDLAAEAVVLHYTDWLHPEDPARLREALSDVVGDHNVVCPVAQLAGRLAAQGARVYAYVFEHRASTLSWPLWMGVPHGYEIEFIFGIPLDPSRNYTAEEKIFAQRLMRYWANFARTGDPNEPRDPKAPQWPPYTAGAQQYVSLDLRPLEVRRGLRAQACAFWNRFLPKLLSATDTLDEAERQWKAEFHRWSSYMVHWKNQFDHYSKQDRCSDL

What is called IC50 is the concentration that gives 50% inhibition. On to `C#CCN(C)Cc1ccc(OC(=O)N(C)C)c2ncccc12`, for which the IC50 turned out to be 7.9 µM on Cholinesterase [1] and 0.52 µM at Acetylcholinesterase [2].

`C#CCNCc1cc2cc(OCCCC3CCN(Cc4ccccc4)CC3)ccc2[nH]1`: the IC50 on Cholinesterase [1] is 7.3 µM; in data set [3], 19.2 µM; in data set [4] it was 33.6 µM; at Acetylcholinesterase [2], 4.9 µM. For the same compound, the Ratio IC50 in the data set listed under Homo sapiens worked out at 0.57; in the data set with HEK293, 0.67.

In general, inhibition refers to how much of the control response was suppressed. On to `C#CCN(C)Cc1cc2cc(OCc3ccc(OC(=O)N(C)C)c4ncccc34)ccc2n1C`, for which the IC50 in [3] was 311 µM; in data set [4], 273 µM. In addition, the inhibition result at Acetylcholinesterase [5] and on Cholinesterase [6] was “inactive” throughout.

With `C#CCN(C)Cc1cc2cc(OCCCC3CCN(Cc4ccccc4C)CC3)ccc2n1C`, the IC50 at Cholinesterase [1] is 4.9 µM; in [4], 0.184 µM; on Acetylcholinesterase [2], 2.8 µM; in data set [10] it was 6.3 µM. In addition, the “inhibition (INH)” value in data set [7] and in data set [11] was 90% each time. Moreover, the Ratio IC50 in the data set listed under Homo sapiens came out at 0.03. The Activity on Acetylcholinesterase [8] and at Cholinesterase [12] was 20% throughout. Besides, the Papp in data set [9] is 14.4 ×10⁻⁶ cm/s.

Turning to `C#CCN(C)Cc1cc2cc(OCCCC3CCN(Cc4ccccc4)CC3)ccc2[nH]1`, the IC50 came to 7.1 µM on Cholinesterase [1], 9.1 µM in [3], 35.1 µM in data set [4] and 15.4 µM on Acetylcholinesterase [2]. For the same compound, the Ratio IC50 in the data set filed under Homo sapiens worked out at 0.26; in the data set with HEK293, 2.2.

With `C=CCNCc1cc2cc(OCCCC3CCN(Cc4ccccc4)CC3)ccc2[nH]1`, the IC50 on Cholinesterase [1] was 40.6 µM; in data set [3], 45.3 µM; in data set [4] it was 21.3 µM; at Acetylcholinesterase [2] it was 4.6 µM. In addition, the Ratio IC50 in the data set filed under Homo sapiens worked out at 2.1; with HEK293, 0.11.

Consider `OCc1cc2cc(OCCCC3CCN(Cc4ccccc4)CC3)ccc2[nH]1`, for which the IC50 worked out at 31.2 µM at Cholinesterase [1], 9.1 µM in [3], 13.5 µM in data set [4] and 13.6 µM at Acetylcholinesterase [2]. Also, the results for the Ratio IC50 in the data set filed under Homo sapiens and in the data set with HEK293 were 0.67 and 0.43, respectively.

For `C#CCN(C)Cc1cc2cc(OCCCC3CCN(Cc4ccccc4)CC3)ccc2n1C`, the IC50 at Cholinesterase [1] was determined as 3.3 µM; in data set [3], 0.0582 µM; in [4], 1.2 µM; on Acetylcholinesterase [2], 3.4 µM. Also, the Ratio IC50 in the data set filed under Homo sapiens is 0.05; in the data set on HEK293 it was 1.03.

As to `C#CCN(C)Cc1cc2cc(OCCCC3CCN(Cc4ccc(OC(=O)N(C)C)c5ncccc45)CC3)ccc2n1C`, the IC50 is 5.9 µM on Cholinesterase [1], 0.258 µM in [3], 0.196 µM in data set [4] and 8.4 µM on Acetylcholinesterase [2]. For the same compound, the Ratio IC50 in the data set filed under Homo sapiens turned out to be 1.3; in the data set on HEK293 it was 1.4.

For the compound `C#CCN(C)Cc1cc2cc(OCCCC3CCN(Cc4ccc(OC)c5ncccc45)CC3)ccc2n1C`, the IC50 was 10.3 µM in data set [3] and 7.9 µM in data set [4]. For the same compound, the inhibition at 100 µM in data set [13] and in [14] was 40% throughout. In addition, the inhibition entry at Cholinesterase [6] was “inactive”.

Turning to `C#CCNCc1cc2cc(OCc3ccccc3)ccc2[nH]1`, the IC50 amounted to 0.287 µM in data set [3] and 0.0041 µM in data set [4]. The Ratio IC50 in the data set listed under Homo sapiens was 70.

As to `CCOC(=O)c1cc2cc(OCCCC3CCN(Cc4ccccc4)CC3)ccc2[nH]1`, the IC50 stood at 9.7 µM on Cholinesterase [1], 0.877 µM in [3], 1 µM in data set [4] and 9.6 µM at Acetylcholinesterase [2]. Moreover, the Ratio IC50 in the data set filed under Homo sapiens came to 0.87; in the data set with HEK293, 0.99.

Consider `C#CCN(C)Cc1cc2cc(OCc3ccc(OC)c4ncccc34)ccc2[nH]1`, for which the IC50 in [3] was found to be 630 µM; in data set [4], 165 µM. In addition, the inhibition result on Acetylcholinesterase [5] and at Cholinesterase [6] was “inactive” in each case.

The values are drawn from ChEMBL document CHEMBL3407435, “N-Methyl-N-((1-methyl-5-(3-(1-(2-methylbenzyl)piperidin-4-yl)propoxy)-1H-indol-2-yl)methyl)prop-2-yn-1-amine, a new cholinesterase and monoamine oxidase dual inhibitor” (J Med Chem, 2014).
